Laboratory results: patent US20230322846A9, “NEUROACTIVE STEROIDS AND THEIR METHODS OF USE” (SAGE THERAPEUTICS, INC., priority 2018, published 2023)

What follows are compounds tested against [35S]-TBPS binding, rat brain cortical membranes (assay: Steroid inhibition of [35S]-TBPS binding). Conditions: 3 nM [35S]-TBPS, in the presence of 5 mM GABA.
Description: [^35S]-t-Butylbicyclophosphorothionate (TBPS) binding assays using rat brain cortical membranes in the presence of 5 mM GABA has been described (Gee et al, J. Pharmacol. Exp. Ther. 1987, 241, 346-353; Hawkinson et al, Mol. Pharmacol. 1994, 46, 977-985; Lewin, A. H et al., Mol. Pharmacol. 1989, 35, 189-194).
Briefly, cortices are rapidly removed following decapitation of carbon dioxide-anesthetized Sprague-Dawley rats (200-250 g). The cortices are homogenized in 10 volumes of ice-cold 0.32 M sucrose using a glass/teflon homogenizer and centrifuged at 1500×g for 10 min at 4° C. The resultant supernatants are centrifuged at 10,000×g for 20 min at 4° C. to obtain the P2 pellets. The P2 pellets are resuspended in 200 mM NaCl/50 mM Na—K phosphate pH 7.4 buffer and centrifuged at 10,000×g for 10 min at 4° C. This washing procedure is repeated twice and the pellets are resuspended in 10 volumes of buffer. Aliquots ([…]) of the membrane suspensions are incubated with 3 nM [^35S]-TBPS and […] aliquots of test drug dissolved in dimethyl sulfoxide (DMSO) (final 0.5%) in the presence of 5 mM GABA. The incubation is brought to a final volume of 1.0 mL with buffer. Nonspecific binding is determined in the presence of […] and ranged from 15 to 25%. Following a 90 min incubation at room temp, the assays are terminated by filtration through glass fiber filters (Schleicher and Schuell No. 32) using a cell harvester (Brandel) and rinsed three times with ice-cold buffer. Filter bound radioactivity is measured by liquid scintillation spectrometry. Non-linear curve fitting of the overall data for each drug averaged for each concentration is done using Prism (GraphPad). […] The concentration of test compound producing 50% inhibition (IC50) of specific binding and the maximal extent of inhibition (Imax) are determined for the individual experiments with the same model used for the overall data and then the means±SEM.s of the individual experiments are calculated.
Various compounds are or can be screened to determine their potential as modulators of [^35S]-TBPS binding in vitro. These assays are or can be performed in accordance with the above
In the case of `C[C@H](NC(=O)c1cccnc1)[C@H]1CC[C@H]2[C@@H]3CC[C@@H]4C[C@](C)(O)CC[C@@H]4[C@H]3CC[C@]12C` [Example 30, N—((S)-1-((3R,5R,8R,9R,10S,13S,14S,17S)-3-hydroxy-3,13-dimethylhexadecahydro-1H-cyclopenta[a]phenanthren-17-yl)ethyl)nicotinamide], the IC50 is reported as 1 to 10 µM.
`COC[C@@]1(O)CC[C@H]2[C@H](CC[C@@H]3[C@@H]2CC[C@]2(C)[C@@H]([C@@H](C)NC(=O)c4ccc(C#N)cn4)CC[C@@H]32)C1` [Example 31, 5-cyano-N—((R)-1-((3R,5R,8R,9R,10S,13S,14S,17S)-3-hydroxy-3-(methoxymethyl)-13-methylhexadecahydro-1H-cyclopenta[a]phenanthren-17-yl)ethyl)picolinamide] showed an IC50 of 0.1 to 1 µM.
`COC[C@@]1(O)CC[C@H]2[C@H](CC[C@@H]3[C@@H]2CC[C@]2(C)[C@@H]([C@H](C)NC(=O)c4ccc(C#N)cn4)CC[C@@H]32)C1` [Example 32, 5-cyano-N—((S)-1-((3R,5R,8R,9R,10S,13S,14S,17S)-3-hydroxy-3-(methoxymethyl)-13-methylhexadecahydro-1H-cyclopenta[a]phenanthren-17-yl)ethyl)picolinamide] gave an IC50 of 1 to 10 µM.
For `C[C@@H](Nc1ccc(C#N)cc1)[C@H]1CC[C@H]2[C@@H]3CC[C@@H]4C[C@](C)(O)CC[C@@H]4[C@H]3CC[C@]12C` [Example 33, 4-(((R)-1-((3R,5R,8R,9R,10S,13S,14S,17S)-3-hydroxy-3,13-dimethylhexadecahydro-1H-cyclopenta[a]phenanthren-17-yl)ethyl)amino)benzonitrile], the IC50 was less than 0.1 µM.
`COC[C@@]1(O)CC[C@H]2[C@H](CC[C@@H]3[C@@H]2CC[C@]2(C)[C@@H]([C@H](C)Cn4nccc4C#N)CC[C@@H]32)C1` [Example 34, 1-((S)-2-((3R,5R,8R,9R,10S,13S,14S,17R)-3-hydroxy-3-(methoxymethyl)-13-methylhexadecahydro-1H-cyclopenta[a]phenanthren-17-yl)propyl)-1H-pyrazole-5-carbonitrile] gave an IC50 of less than 0.1 µM.
In the case of `COC[C@@]1(O)CC[C@H]2[C@H](CC[C@@H]3[C@@H]2CC[C@]2(C)[C@@H]([C@H](C)Cn4ccc(C#N)n4)CC[C@@H]32)C1` [Example 35, 1-((S)-2-((3R,5R,8R,9R,10S,13S,14S,17R)-3-hydroxy-3-(methoxymethyl)-13-methylhexadecahydro-1H-cyclopenta[a]phenanthren-17-yl)propyl)-1H-pyrazole-3-carbonitrile], the IC50 is reported as less than 0.1 µM.
`COC[C@@]1(O)CC[C@H]2[C@H](CC[C@@H]3[C@@H]2CC[C@]2(C)[C@@H]([C@@H](C)Cn4ccc(C#N)n4)CC[C@@H]32)C1` [Example 36, 1-((R)-2-((3R,5R,8R,9R,10S,13S,14S,17R)-3-hydroxy-3-(methoxymethyl)-13-methylhexadecahydro-1H-cyclopenta[a]phenanthren-17-yl)propyl)-1H-pyrazole-3-carbonitrile] showed an IC50 of less than 0.1 µM.
`COC[C@@]1(O)CC[C@H]2[C@H](CC[C@@H]3[C@@H]2CC[C@]2(C)[C@@H]([C@@H](C)Cn4nccc4C#N)CC[C@@H]32)C1` [Example 37, 1-((R)-2-((3R,5R,8R,9R,10S,13S,14S,17R)-3-hydroxy-3-(methoxymethyl)-13-methylhexadecahydro-1H-cyclopenta[a]phenanthren-17-yl)propyl)-1H-pyrazole-5-carbonitrile] showed an IC50 of less than 0.1 µM.
In the case of `C[C@H]([C@H]1CC[C@H]2[C@@H]3CC[C@@H]4C[C@](C)(O)CC[C@@H]4[C@H]3CC[C@]12C)N(C)c1ccccc1` [Example 38, (3R,5R,8R,9R,10S,13S,14S,17S)-3,13-dimethyl-17-((R)-1-(methyl(phenyl)amino)ethyl)hexadecahydro-1H-cyclopenta[a]phenanthren-3-ol], the IC50 is reported as 0.1 to 1 µM.
In the case of `C[C@@H]([C@H]1CC[C@H]2[C@@H]3CC[C@@H]4C[C@](C)(O)CC[C@@H]4[C@H]3CC[C@]12C)N(C)c1ccccc1` [Example 39, (3R,5R,8R,9R,10S,13S,14S,17S)-3,13-dimethyl-17-((S)-1-(methyl(phenyl)amino)ethyl)hexadecahydro-1H-cyclopenta[a]phenanthren-3-ol], the IC50 is reported as 1 to 10 µM.
Compound `C[C@H]([C@H]1CC[C@H]2[C@@H]3CC[C@@H]4C[C@](C)(O)CC[C@@H]4[C@H]3CC[C@]12C)N1Cc2cc(C#N)ccc2C1=O` [Example 40, 2-((R)-1-((3R,5R,8R,9R,10S,13S,14S,17S)-3-hydroxy-3,13-dimethylhexadecahydro-1H-cyclopenta[a]phenanthren-17-yl)ethyl)-1-oxoisoindoline-5-carbonitrile] has an IC50 of less than 0.1 µM.
For `CCOC[C@@]1(O)CC[C@H]2[C@H](CC[C@@H]3[C@@H]2CC[C@]2(C)[C@@H]([C@@H](C)NC(=O)c4ccccc4F)CC[C@@H]32)C1` [Example 42, N—((R)-1-((3R,5R,8R,9R,10S,13S,14S,17S)-3-(ethoxymethyl)-3-hydroxy-13-methylhexadecahydro-1H-cyclopenta[a]phenanthren-17-yl)ethyl)-2-fluorobenzamide], the IC50 was 0.1 to 1 µM.
Work on `CCOC[C@@]1(O)CC[C@H]2[C@H](CC[C@@H]3[C@@H]2CC[C@]2(C)[C@@H]([C@@H](C)N4Cc5cc(C#N)ccc5C4=O)CC[C@@H]32)C1` [Example 43, 2-((R)-1-((3R,5R,8R,9R,10S,13S,14S,17S)-3-(ethoxymethyl)-3-hydroxy-13-methylhexadecahydro-1H-cyclopenta[a]phenanthren-17-yl)ethyl)-1-oxoisoindoline-5-carbonitrile] yielded an IC50 of 0.1 to 1 µM.
Compound `COC[C@@]1(O)CC[C@H]2[C@H](CC[C@@H]3[C@@H]2CC[C@]2(C)[C@@H]([C@@H](C)N4Cc5cc(C#N)ccc5C4=O)CC[C@@H]32)C1` [Example 44, 2-((R)-1-((3R,5R,8R,9R,10S,13S,14S,17S)-3-hydroxy-3-(methoxymethyl)-13-methylhexadecahydro-1H-cyclopenta[a]phenanthren-17-yl)ethyl)-1-oxoisoindoline-5-carbonitrile] has an IC50 of less than 0.1 µM.
With `C[C@H]([C@H]1CC[C@H]2[C@@H]3CC[C@@H]4C[C@](C)(O)CC[C@@H]4[C@H]3CC[C@]12C)N1CCc2cc(C#N)ccc2C1=O` [Example 45, 2-((R)-1-((3R,5R,8R,9R,10S,13S,14S,17S)-3-hydroxy-3,13-dimethylhexadecahydro-1H-cyclopenta[a]phenanthren-17-yl)ethyl)-1-oxo-1,2,3,4-tetrahydroisoguinoline-6-carbonitrile] the IC50 was less than 0.1 µM.
For `CCOC[C@@]1(O)CC[C@H]2[C@H](CC[C@@H]3[C@@H]2CC[C@]2(C)[C@@H]([C@@H](C)N4CCc5cc(C#N)ccc5C4=O)CC[C@@H]32)C1` [Example 46, 2-((R)-1-((3R,5R,8R,9R,10S,13S,14S,17S)-3-(ethoxymethyl)-3-hydroxy-13-methylhexadecahydro-1H-cyclopenta[a]phenanthren-17-yl)ethyl)-1-oxo-1,2,3,4-tetrahydroisoquinoline-6-carbonitrile], the IC50 was less than 0.1 µM.
`COC[C@@]1(O)CC[C@H]2[C@H](CC[C@@H]3[C@@H]2CC[C@]2(C)[C@@H](CCn4nnc(C)n4)CC[C@@H]32)C1` [Example 47, (3R,5R,8R,9R,10S,13R,14S,17R)-3-(methoxymethyl)-13-methyl-17-(2-(5-methyl-2H-tetrazol-2-yl)ethyl)hexadecahydro-1H-cyclopenta[a]phenanthren-3-ol] was tested, and the IC50 was less than 0.1 µM.
In the case of `COC[C@@]1(O)CC[C@H]2[C@H](CC[C@@H]3[C@@H]2CC[C@]2(C)[C@@H](CCn4nnnc4C)CC[C@@H]32)C1` [Example 48, (3R,5R,8R,9R,10S,13R,14S,17R)-3-(methoxymethyl)-13-methyl-17-(2-(5-methyl-1H-tetrazol-1-yl)ethyl)hexadecahydro-1H-cyclopenta[a]phenanthren-3-ol], the IC50 is reported as less than 0.1 µM.
`COC[C@@]1(O)CC[C@H]2[C@H](CC[C@@H]3[C@@H]2CC[C@]2(C)[C@@H](CCn4nccn4)CC[C@@H]32)C1` [Example 49, (3R,5R,8R,9R,10S,13R,14S,17R)-17-(2-(2H-1,2,3-triazol-2-yl)ethyl)-3-(methoxymethyl)-13-methylhexadecahydro-1H-cyclopenta[a]phenanthren-3-ol] showed an IC50 of less than 0.1 µM.
`COC[C@@]1(O)CC[C@H]2[C@H](CC[C@@H]3[C@@H]2CC[C@]2(C)[C@@H](CCn4ccnn4)CC[C@@H]32)C1` [Example 50, (3R,5R,8R,9R,10S,13R,14S,17R)-17-(2-(1H-1,2,3-triazol-1-yl)ethyl)-3-(methoxymethyl)-13-methylhexadecahydro-1H-cyclopenta[a]phenanthren-3-ol] gave an IC50 of less than 0.1 µM.
